Source: patent publication US20120028045A1, “Processes for the Preparation of Indiplon and Intermediates Thereof” (Glenmark Generics LTD, priority 2009, published 2012)

Legend:
Type in all cases: physicochemical
[1] = Bulk density as per USP method I
[2] = Specific surface area by BET (nitrogen absorption); settings: crystal particles of indiplon
Source text: Specific surface area is defined in units of square meters per gram (m^2/g). It is usually measured by nitrogen absorption analysis. In this analysis, nitrogen is absorbed on the surface of the substance. The amount of the absorbed nitrogen (as measured during the absorption or the subsequent desorption process) is related to the surface area via a formula known as the B. ET. formula.

[3] = Particle size distribution (laser light scattering, Malvern Mastersizer 2000); settings: crystal particles of indiplon
Source text: As used herein “Particle Size Distribution (P.S.D.)” means the cumulative volume size distribution of equivalent spherical diameters as determined by laser diffraction at 1 bar dispersive pressure in Sympatec Helos equipment.
“Mean particle size distribution, i.e., d (0.5)” correspondingly, means the median of said particle size distribution.
The particle size can be determined by such techniques as, for example, Malvern light scattering, a laser light scattering technique, etc., while herein, used Malvern Mastersizer 2000. It is noted the notation Dx means that X % of the particles have a diameter less than a specified diameter D. The particle sizes of the Indiplon can be obtained by, for example, any milling, grinding, micronizing or other particle size reduction method known in the art to bring the solid state indiplon any of the foregoing desired particle size range.

## CC(=O)N(C)c1cccc(-c2ccnc3c(C(=O)c4cccs4)cnn23)c1 [indiplon, N-methyl-N-[3-[3-(thien-2-ylcarbonyl)pyrazolo[1,5-a]pyrimidin-7-yl]phenyl]acetamide]
[1]; after tapping (750), USP method I
  Bulk Density, after tapping (750): After tapping (750) = 0.47 g/ml as per USP
[1]; as such (untapped)
  Bulk Density, as such: As such = 0.24 g/ml
[2]
  Surface area by BET: 1.41 m^2/gm
[3]
  Particle size Distribution d(0.1): d(0.1) 4.949 μm
  Particle size Distribution d(0.9): d(0.9) 24.325 μm
[3]; median particle size
  Particle size Distribution d(0.5): d(0.5) 11.641 μm
